What was measured:
EGFR = target: T1, EGFR (Homo sapiens, UniProt P00533); assay: EGFR ELISA assay (in vitro kinase activity, EGFR captured from A431 cell lysate); type: biochemical; parameters: concentration or dose not given beside the values
T1 construct: Add 7 ug A431 cell lysate per well (EGFR source); endogenous in cells; host or cells: A431
In short: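 EGFR from A431 lysate was captured on plates coated with anti-EGFR antibody. Compounds were added 30 min before a 5 min phosphorylation with 3 µM ATP/5 mM MnCl2, which was stopped with 20 mM EDTA. Phosphotyrosine was detected with rabbit anti-phosphotyrosine, then a peroxidase-conjugated secondary and ABTS/H2O2, read at 410 nm.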

MET = MET biochemical kinase assay; parameters: species or system human; concentration or dose not given beside the values
In short: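 Plates coated with anti-rabbit Fc bind a rabbit anti-MET antibody that captures receptor from cell lysates; unbound protein is washed off before compound and ATP-containing kinase buffer go in.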

T1 sequence (P00533 25-1210): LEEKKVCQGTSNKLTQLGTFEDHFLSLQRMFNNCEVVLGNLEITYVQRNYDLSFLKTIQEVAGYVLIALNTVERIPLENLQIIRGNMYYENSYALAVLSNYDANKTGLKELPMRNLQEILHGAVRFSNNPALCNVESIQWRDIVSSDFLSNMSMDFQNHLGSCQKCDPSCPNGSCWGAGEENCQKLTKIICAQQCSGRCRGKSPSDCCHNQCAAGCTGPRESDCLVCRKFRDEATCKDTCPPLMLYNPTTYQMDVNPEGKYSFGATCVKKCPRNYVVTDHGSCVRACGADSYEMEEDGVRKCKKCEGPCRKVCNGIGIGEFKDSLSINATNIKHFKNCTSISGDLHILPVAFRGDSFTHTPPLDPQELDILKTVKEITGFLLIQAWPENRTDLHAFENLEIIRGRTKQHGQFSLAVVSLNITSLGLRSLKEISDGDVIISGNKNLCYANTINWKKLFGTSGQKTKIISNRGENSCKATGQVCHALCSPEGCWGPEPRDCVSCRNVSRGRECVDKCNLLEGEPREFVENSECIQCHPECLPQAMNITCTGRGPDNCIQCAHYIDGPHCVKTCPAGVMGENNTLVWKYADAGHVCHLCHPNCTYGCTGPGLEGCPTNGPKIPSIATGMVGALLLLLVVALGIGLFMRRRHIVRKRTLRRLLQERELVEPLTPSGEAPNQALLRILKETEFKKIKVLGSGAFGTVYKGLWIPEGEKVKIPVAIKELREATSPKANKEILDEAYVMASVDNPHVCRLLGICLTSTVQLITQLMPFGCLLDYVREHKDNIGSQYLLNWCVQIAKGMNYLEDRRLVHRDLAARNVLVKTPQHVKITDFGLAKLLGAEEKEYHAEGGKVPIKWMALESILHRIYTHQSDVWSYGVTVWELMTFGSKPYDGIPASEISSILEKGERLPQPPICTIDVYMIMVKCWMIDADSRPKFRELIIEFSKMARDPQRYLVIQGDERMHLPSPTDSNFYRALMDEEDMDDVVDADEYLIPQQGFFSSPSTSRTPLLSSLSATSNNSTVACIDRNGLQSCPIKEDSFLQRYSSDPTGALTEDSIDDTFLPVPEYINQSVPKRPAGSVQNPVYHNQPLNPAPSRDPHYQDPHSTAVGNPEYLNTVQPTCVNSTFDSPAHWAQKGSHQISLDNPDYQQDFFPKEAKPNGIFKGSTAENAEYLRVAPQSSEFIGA

SMILES | Biochem EGFR %Inhibition (EGFR) [%] | Met Kinase % Inhibition (MET) [%]
O=C1Nc2ccc(I)cc2C1=Cc1ccc(O)c(O)c1O [10723/B02] | 91.0 | 100.3
O=C1Nc2ccc(CCCl)cc2C1=Cc1ccc(O)cc1O [10723/G08] | 0.1 | 79.9
CC(C)(C)c1cc(C=C2C(=O)Nc3ccc(CCCl)cc32)cc(Cl)c1O [10722/G08] | -8.5 | 66.1
CC(C)(C)c1cc(C=C2C(=O)Nc3ccc(CCCl)cc32)cc([N+](=O)[O-])c1O [10722/G02] | 27.3 | 43.0
O=C1Nc2c(Br)cc(Br)cc2C1=Cc1ccccc1Br [10723/A07] | 3.9 | 63.2
CC(=O)Oc1ccc(C=C2C(=O)Nc3c(Br)cc(Br)cc32)cc1OC(C)=O [10723/A05] | 26.4 | 75.7
COc1cccc(C=C2C(=O)Nc3ccc(Br)c(C)c32)c1O [10723/C03] | 5.9 | 88.8
CNS(=O)(=O)c1ccc2c(c1)C(=Cc1[nH]c(C)c(Br)c1Br)C(=O)N2 [10717/D11] | 59.1 | 55.3
O=C1Nc2ccc(CCCl)cc2C1=Cc1ccc(O)c(O)c1O [10723/G02] | 90.8 | 99.2
O=C1Nc2ccc(S(=O)(=O)N3CCOCC3)cc2C1=Cc1cc(O)c(O)c(Br)c1 [10723/F04] | 17.5 | 94.0
COc1cccc(C=C2C(=O)Nc3c(Br)cc(Br)cc32)c1O [10723/A03] | 38.5 | 76.5
Cn1cccc1C=C1C(=O)Nc2ccc(S(=O)(=O)Nc3ccc(C(F)(F)F)cc3)cc21 [10717/E04] | -28.3 | 29.4
CC(=O)Oc1ccc(C=C2C(=O)Nc3ccc(CCCl)cc32)cc1OC(C)=O [10723/G05] | 1.3 | 79.9
O=C1Nc2ccc(CCCl)cc2C1=Cc1ccc(F)cc1F [10722/G06] | -5.2 | 12.2
COc1cccc(C=C2C(=O)Nc3ccc(S(=O)(=O)Nc4ccc(C(F)(F)F)cc4)cc32)c1O [10723/E03] | 8.3 | 76.8
O=C1Nc2ccc(I)cc2C1=Cc1cc(O)c(O)c(Br)c1 [10723/B04] | 5.1 | 90.6
Cc1cc(C=C2C(=O)Nc3ccc(CCCl)cc32)ccc1O [10723/G06] | -26.7 | 64.5
CNS(=O)(=O)c1ccc2c(c1)C(=Cc1cccc(Br)c1)C(=O)N2 [10723/D10] | -9.3 | 38.1
COc1ccc(C=C2C(=O)Nc3ccc(CCCl)cc32)c(O)c1 [10723/G09] | -32.6 | 80.7
Cc1c(Br)ccc2c1C(=Cc1ccc(O)c(O)c1O)C(=O)N2 [10723/C02] | 73.6 | 100.6

SMILES | Biochem EGFR %Inhibition (EGFR) [%] | Met Kinase % Inhibition (MET) [%]
CNS(=O)(=O)c1ccc2c(c1)C(=Cc1ccc(O)c(O)c1O)C(=O)N2 [10723/D02] | 63.2 | 93.0
Cc1cc(C=C2C(=O)Nc3ccc(S(=O)(=O)Nc4ccc(C(F)(F)F)cc4)cc32)ccc1O [10723/E06] | 11.5 | 74.4
Cc1c(Br)ccc2c1C(=Cc1cc(O)c(O)c(Br)c1)C(=O)N2 [10723/C04] | 23.5 | 91.9
O=C1Nc2ccc(CCCl)cc2C1=Cc1ccccc1Br [10723/G07] | 15.5 | 43.0
COc1ccc(C=C2C(=O)Nc3c(Br)cc(Br)cc32)c(O)c1 [10723/A09] | -4.5 | 85.9
CNS(=O)(=O)c1ccc2c(c1)C(=Cc1cc(C(C)(C)C)cc(C(C)(C)C)c1O)C(=O)N2 [10723/D11] | -6.2 | 42.0
O=C1Nc2ccc(S(=O)(=O)Nc3ccc(C(F)(F)F)cc3)cc2C1=Cc1ccc(O)cc1O [10723/E08] | 52.6 | 89.3
O=C1Nc2ccc(S(=O)(=O)Nc3ccc(C(F)(F)F)cc3)cc2C1=Cc1ccc(O)c(O)c1O [10723/E02] | 91.0 | 97.9
COc1cccc(C=C2C(=O)Nc3ccc(CCCl)cc32)c1O [10723/G03] | 18.5 | 74.7
O=C1Nc2ccc(CCCl)cc2C1=Cc1c(O)cc(O)cc1O [10722/G03] | 4.1 | 52.2
Cc1c(Br)ccc2c1C(=Cc1cc(C(C)(C)C)cc(C(C)(C)C)c1O)C(=O)N2 [10723/C11] | -1.1 | 47.0
O=C1Nc2ccc(I)cc2C1=Cc1cccc(Br)c1 [10723/B10] | 1.8 | 88.5
Cc1c(Br)ccc2c1C(=Cc1cccc(Br)c1)C(=O)N2 [10723/C10] | -7.2 | 43.8
O=C1Nc2ccc(S(=O)(=O)N3CCOCC3)cc2C1=Cc1ccc(O)c(O)c1O [10723/F02] | 70.4 | 99.0
CC(=O)Oc1ccc(C=C2C(=O)Nc3ccc(S(=O)(=O)N4CCOCC4)cc32)cc1OC(C)=O [10723/F05] | -3.8 | 45.6
O=C1Nc2ccc(CCCl)cc2C1=Cc1ccc(C(F)(F)F)cc1 [10722/G11] | -39.4 | 35.3
COc1ccc(C=C2C(=O)Nc3ccc(I)cc32)c(O)c1 [10723/B09] | -12.0 | 57.7
Cc1cc(C=C2C(=O)Nc3ccc(Br)c(C)c32)ccc1O [10723/C06] | -4.5 | 63.4
O=C1Nc2c(Br)cc(Br)cc2C1=Cc1cccc(Br)c1 [10723/A10] | -24.8 | 62.1
CNS(=O)(=O)c1ccc2c(c1)C(=Cc1ccc(O)cc1O)C(=O)N2 [10723/D08] | 4.9 | 53.5

SMILES | Biochem EGFR %Inhibition (EGFR) [%] | Met Kinase % Inhibition (MET) [%]
CNS(=O)(=O)c1ccc2c(c1)C(=Cc1ccc(OC(C)=O)c(OC(C)=O)c1)C(=O)N2 [10723/D05] | 3.7 | 54.5
COc1cccc(C=C2C(=O)Nc3ccc(S(=O)(=O)N4CCOCC4)cc32)c1O [10723/F03] | 9.3 | 78.3
O=C1Nc2ccc(S(=O)(=O)Nc3ccc(C(F)(F)F)cc3)cc2C1=Cc1c[nH]c2ccccc12 [10717/E06] | -26.1 | 24.8
CC(C)(C)c1cc(C=C2C(=O)Nc3c(Br)cc(Br)cc32)c(O)c(C(C)(C)C)c1 [10723/A11] | -4.0 | 60.0
Cc1c(Br)ccc2c1C(=Cc1ccc(O)cc1O)C(=O)N2 [10723/C08] | 45.0 | 83.0
Cc1cc(C=C2C(=O)Nc3ccc(I)cc32)ccc1O [10723/B06] | 11.9 | 90.6
CC(=O)Oc1ccc(C=C2C(=O)Nc3ccc(I)cc32)cc1OC(C)=O [10723/B05] | 36.4 | 85.1
O=C1Nc2c(Br)cc(Br)cc2C1=Cc1cc(O)c(O)c(Br)c1 [10723/A04] | 30.8 | 97.9
CCOc1ccccc1C=C1C(=O)Nc2ccc(S(=O)(=O)Nc3ccc(C(F)(F)F)cc3)cc21 [10717/E02] | 17.2 | 24.0
Cc1cc(C=C2C(=O)Nc3c(Br)cc(Br)cc32)ccc1O [10723/A06] | 20.1 | 79.1
Cc1ccc(C=C2C(=O)Nc3ccc(S(=O)(=O)Nc4ccc(C(F)(F)F)cc4)cc32)s1 [10717/E07] | -7.8 | 41.0
O=C1Nc2ccc(CCCl)cc2C1=Cc1cc(O)c(O)c(Br)c1 [10723/G04] | 16.7 | 85.9
O=C1Nc2ccc(S(=O)(=O)Nc3ccc(C(F)(F)F)cc3)cc2C1=Cc1ccc(F)cc1 [10717/E05] | 22.4 | 39.1
O=C1Nc2ccc(S(=O)(=O)Nc3ccc(C(F)(F)F)cc3)cc2C1=Cc1ccc(Br)cc1 [10717/E08] | 28.2 | 51.7
O=C1Nc2ccc(S(=O)(=O)Nc3ccc(C(F)(F)F)cc3)cc2C1=Cc1cccs1 [10717/E03] | 11.7 | 52.2
CNS(=O)(=O)c1ccc2c(c1)C(=Cc1cc(O)c(O)c(Br)c1)C(=O)N2 [10723/D04] | 45.1 | 97.7
O=C1Nc2c(Br)cc(Br)cc2C1=Cc1ccc(O)c(O)c1O [10723/A02] | 97.8 | 100.8
O=C1Nc2ccc(I)cc2C1=Cc1ccc(O)cc1O [10723/B08] | -0.4 | 82.8
Cc1c(Br)ccc2c1C(=Cc1ccccc1Br)C(=O)N2 [10723/C07] | -4.0 | 44.3
O=C1Nc2c(Br)cc(Br)cc2C1=Cc1ccc(O)cc1O [10723/A08] | -2.1 | 77.3
